Test results from PubChem BioAssay (NCI).
Where “and” joins values, the source holds several entries; their conditions need not be identical. Equal entries are not always repeated.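 Cells were grown in 96-well plates and exposed to each compound for 48 hours at five concentrations; endpoints were interpolated linearly between bracketing concentrations, or set to the highest concentration if not reached. Abbreviation: GI50, concentration required for 50% inhibition of growth. TGI denotes the concentration required for complete inhibition of growth.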

Tests used:
Assay in all cases: DTP human tumour cell line panel, 48 h
MDA-MB-231 breast = tested on: MDA-MB-231 breast
EKVX NSCLC = tested on: EKVX NSCLC
SN12C renal = tested on: SN12C renal
NCI/ADR-RES ovarian = tested on: NCI/ADR-RES ovarian
HCC-2998 colon = tested on: HCC-2998 colon
BT-549 breast = tested on: BT-549 breast
SR leukemia = tested on: SR leukemia
HS 578T breast = tested on: HS 578T breast
CCRF-CEM leukemia = tested on: CCRF-CEM leukemia
HCT-116 colon = tested on: HCT-116 colon

With `Cc1cc(-c2nnc(/C=C/c3ccc4c(c3)OCO4)o2)n[nH]1` the GI50 (MDA-MB-231 breast) was 16.9 µM, the TGI (MDA-MB-231 breast) was > 50 µM and the GI50 (EKVX NSCLC) was 17.9 µM. For the same compound, the TGI (EKVX NSCLC) was > 50 µM, the GI50 (SN12C renal) was 30 µM and the TGI (SN12C renal) was > 50 µM. It also gave a GI50 (NCI/ADR-RES ovarian) of 7.33 µM, a TGI (NCI/ADR-RES ovarian) of 21.4 µM and a GI50 (HCC-2998 colon) of 10.7 µM. For the same compound, the TGI (HCC-2998 colon) was > 50 µM, the GI50 (BT-549 breast) was 6.78 µM and the TGI (BT-549 breast) was 39.3 µM. It also gave a GI50 (SR leukemia) of 2.39 µM, a TGI (SR leukemia) of 48.3 µM and a GI50 (HS 578T breast) of 9.64 µM. It also gave a TGI (HS 578T breast) of 47 µM, a GI50 (CCRF-CEM leukemia) of 2.05 µM and a TGI (CCRF-CEM leukemia) of 19.1 µM. For the same compound, the GI50 (HCT-116 colon) was 11.9 µM and the TGI (HCT-116 colon) was > 50 µM.
Work on `O=C1Nc2cc(-c3cccc(O)c3)ccc2/C1=C/c1ccc[nH]1` yielded a GI50 (MDA-MB-231 breast) of 0.163 µM, a TGI (MDA-MB-231 breast) of 7.39 µM and a GI50 (EKVX NSCLC) of 0.121 µM. For the same compound, the TGI (EKVX NSCLC) was 17 µM, the GI50 (SN12C renal) was 1.6 µM and the TGI (SN12C renal) was 7.11 µM. It also gave a GI50 (NCI/ADR-RES ovarian) of 2.51 µM, a TGI (NCI/ADR-RES ovarian) of 12.5 µM and a GI50 (HCC-2998 colon) of 2.03 µM. The TGI (HCC-2998 colon) was 11.8 µM, the GI50 (BT-549 breast) was 0.506 µM and the TGI (BT-549 breast) was 3.96 µM. It also gave a GI50 (SR leukemia) of 0.0282 µM, a TGI (SR leukemia) of 1.82 µM and a GI50 (HS 578T breast) of 1.51 µM. The TGI (HS 578T breast) was 5.73 µM, the GI50 (CCRF-CEM leukemia) was 2.27 µM and the TGI (CCRF-CEM leukemia) was > 100 µM. The GI50 (HCT-116 colon) was 1.32 µM and the TGI (HCT-116 colon) was 3.44 µM.
For `Cc1ccc(S(=O)(=O)OCC#CCOS(=O)(=O)c2ccc(C)cc2)cc1`, the GI50 (MDA-MB-231 breast) was 3.39 µM, the TGI (MDA-MB-231 breast) was 11 µM and the GI50 (EKVX NSCLC) was 2.08 µM. The TGI (EKVX NSCLC) was 4.38 µM, the GI50 (SN12C renal) was 3.89 µM and the TGI (SN12C renal) was 17.3 µM. It also gave a GI50 (NCI/ADR-RES ovarian) of 2.12 µM, a TGI (NCI/ADR-RES ovarian) of 5.93 µM and a GI50 (HCC-2998 colon) of 2.85 µM. It also gave a TGI (HCC-2998 colon) of 8.73 µM, a GI50 (BT-549 breast) of 4.57 µM and a TGI (BT-549 breast) of 9.68 µM. It also gave a GI50 (SR leukemia) of 1.27 µM, a TGI (SR leukemia) of 3.89 µM and a GI50 (HS 578T breast) of 2.75 µM. It also gave a TGI (HS 578T breast) of 14.2 µM, a GI50 (CCRF-CEM leukemia) of 1.96 µM and a TGI (CCRF-CEM leukemia) of 5.79 µM. It also gave a GI50 (HCT-116 colon) of 2.08 µM and a TGI (HCT-116 colon) of 5.47 µM.
For `NC(=S)N=Nc1c(O)[nH]c2c(Cl)cc(Cl)cc12`, the TGI (MDA-MB-231 breast) was 50.2 µM, the TGI (EKVX NSCLC) was > 100 µM and the TGI (SN12C renal) was 52.8 µM. The TGI (NCI/ADR-RES ovarian) was 38.7 µM, the TGI (HCC-2998 colon) was > 100 µM and the TGI (BT-549 breast) was 50.4 µM. The TGI (SR leukemia) was 70.4 µM, the TGI (HS 578T breast) was 72.5 µM and the TGI (CCRF-CEM leukemia) was > 100 µM. The TGI (HCT-116 colon) was 40.5 µM.
`CS(=O)(=O)Nc1cc(-c2ccc3ncnc(Nc4ccc(F)c(Cl)c4)c3c2)cnc1Cl` was tested, and the GI50 (MDA-MB-231 breast) was 0.98 µM and 1.07 µM, the TGI (MDA-MB-231 breast) was 3.21 µM and 5.92 µM and the GI50 (EKVX NSCLC) was 0.34 µM and 0.352 µM. The TGI (EKVX NSCLC) was 3.19 µM and 2.61 µM, the GI50 (SN12C renal) was 0.389 µM and the TGI (SN12C renal) was 12.7 µM. For the same compound, the GI50 (NCI/ADR-RES ovarian) was 2.06 µM and 2.07 µM, the TGI (NCI/ADR-RES ovarian) was 30.5 µM and 20 µM and the GI50 (HCC-2998 colon) was 1.21 µM. The TGI (HCC-2998 colon) was 4.05 µM, the GI50 (BT-549 breast) was 0.307 µM and 0.287 µM and the TGI (BT-549 breast) was 3.36 µM and 2.68 µM. For the same compound, the GI50 (SR leukemia) was 0.577 µM and 2.2 µM, the TGI (SR leukemia) was 5.56 µM and 43 µM and the GI50 (HS 578T breast) was 0.182 µM and 0.19 µM. The TGI (HS 578T breast) was 2.69 µM, the GI50 (CCRF-CEM leukemia) was 0.378 µM and 0.309 µM and the TGI (CCRF-CEM leukemia) was 11.9 µM and 28.1 µM. For the same compound, the GI50 (HCT-116 colon) was 0.783 µM and 0.946 µM and the TGI (HCT-116 colon) was 3.22 µM and 5.22 µM.
`O=C(NCCc1ccccc1)Nc1ccc2cc3ccc(NC(=O)NCCc4ccccc4)cc3nc2c1` gave a GI50 (MDA-MB-231 breast) of 1.35 µM, a TGI (MDA-MB-231 breast) of 2.75 µM and a GI50 (EKVX NSCLC) of 3.49 µM. For the same compound, the TGI (EKVX NSCLC) was 21.8 µM, the GI50 (SN12C renal) was 0.42 µM and the TGI (SN12C renal) was 1.6 µM. For the same compound, the GI50 (NCI/ADR-RES ovarian) was > 100 µM, the TGI (NCI/ADR-RES ovarian) was > 100 µM and the GI50 (HCC-2998 colon) was 0.447 µM. The TGI (HCC-2998 colon) was 1.68 µM, the GI50 (BT-549 breast) was 1.64 µM and the TGI (BT-549 breast) was 3.37 µM. It also gave a GI50 (SR leukemia) of 0.392 µM, a TGI (SR leukemia) of 16 µM and a GI50 (HS 578T breast) of 0.276 µM. The TGI (HS 578T breast) was 0.933 µM, the GI50 (CCRF-CEM leukemia) was 0.301 µM and the TGI (CCRF-CEM leukemia) was 0.945 µM. The GI50 (HCT-116 colon) was 0.349 µM and the TGI (HCT-116 colon) was 1.29 µM.
Work on `OB(O)c1ccccc1C#Cc1ccccc1B(O)O` yielded a TGI (MDA-MB-231 breast) of 66.3 µM, a TGI (EKVX NSCLC) of 54.2 µM and a TGI (SN12C renal) of 68 µM. For the same compound, the TGI (NCI/ADR-RES ovarian) was > 100 µM, the TGI (HCC-2998 colon) was 40.9 µM and the TGI (BT-549 breast) was 47.8 µM. For the same compound, the TGI (SR leukemia) was > 100 µM, the TGI (HS 578T breast) was 51 µM and the TGI (CCRF-CEM leukemia) was > 100 µM. For the same compound, the TGI (HCT-116 colon) was 58.4 µM.
`CC1=C(/C=C/C(=O)CC(=O)/C=C/C2=C(C)CCCC2(C)C)C(C)(C)CCC1` was tested, and the GI50 (MDA-MB-231 breast) was 52.3 µM, the TGI (MDA-MB-231 breast) was > 100 µM and the GI50 (EKVX NSCLC) was 15.5 µM. The TGI (EKVX NSCLC) was 52.8 µM, the GI50 (SN12C renal) was 40.3 µM and the TGI (SN12C renal) was > 100 µM. For the same compound, the GI50 (NCI/ADR-RES ovarian) was 31.4 µM, the TGI (NCI/ADR-RES ovarian) was > 100 µM and the GI50 (HCC-2998 colon) was 35.4 µM. For the same compound, the TGI (HCC-2998 colon) was > 100 µM, the GI50 (BT-549 breast) was 33.9 µM and the TGI (BT-549 breast) was > 100 µM. For the same compound, the GI50 (SR leukemia) was 11.9 µM, the TGI (SR leukemia) was 40.4 µM and the GI50 (HS 578T breast) was 14.7 µM. The TGI (HS 578T breast) was 68.4 µM, the GI50 (CCRF-CEM leukemia) was 5.22 µM and the TGI (CCRF-CEM leukemia) was 31 µM. For the same compound, the GI50 (HCT-116 colon) was 27.7 µM and the TGI (HCT-116 colon) was > 100 µM.
